Tested on: proteins in HEK293T cells
Assay: MS-based mapping of FFF probe-modified peptides (isoTOP, sites of labeling)
Format: binding, human
Description: Preparation and analysis was adapted from methods previously reported. In brief, for global mapping of fragment probe-modified peptides, separate 10 cm dishes of cells were treated with probes (200-250 μM) in 3.0 mL of DMEM (serum-free) and (if applicable) competitor ligands, proteomes harvested and subjected to click chemistry conditions with either light or heavy isotopically labeled biotin-TEV-azide (10 μL of 5 mM stocks in DMSO, final concentration=100 μM), TCEP, ligand and CuSO4 as detailed above. The samples were allowed to react for 1 h at which point the samples were centrifuged (16,000 g, 5 min, 4° C.). The resulting pellets were sonicated in ice-cold methanol (500 μL) and the resuspended light- and heavy-labeled samples were then combined and centrifuged (16,000 g, 5 min, 4° C.). The pellets were then solubilized in PBS containing 1.2% SDS (1 mL) with sonication and heating (5 min, 95° C.). Samples were transferred to falcon tubes containing DPBS (5 mL), to which a 100 μL of streptavidin-agarose beads slurry was added. After incubation, the beads (3 hr) were pelleted by centrifugation (1,400 g, 3 min) and were washed (2×10 mL PBS and 2×10 mL water). The beads were transferred to eppendorf tubes with 1 mL DPBS, centrifuged (1,400 g, 3 min), and resuspended in PBS containing 6 M urea. To this was added 10 mM DTT (25 μL of a 200 mM stock in water) and the beads were incubated at 65° C. for 15 mins. 20 mM iodoacetamide (25 μL of a 400 mM stock in water) was then added and allowed to react at 37° C. for 30 mins with shaking. The bead mixture was diluted with 900 μL PBS, pelleted by centrifugation (1,400 g, 3 min), and resuspended in 200 μL 2M urea (DPBS) containing trypsin and CaCl2 as described above. The beads were separated from the digest by centrifugation (1,000 g, 1 min), washed (2×1 mL PBS and 2×1 mL water) and then transferred to fresh eppendorfs with 1 mL water. The washed beads were washed once further in 150 μL TEV buffer (50 mM Tris, pH 8, 0.5 mM EDTA, 1 mM DTT) by centrifugation (1,400 g, 3 min) and the resuspended in 150 μL TEV buffer. 5 μL TEV protease (80 μM) was added and the reactions were rotated overnight at 29° C. The TEV digest was separated from the beads by centrifugation (1,400 g, 3 min) and the beads were washed once with water (100 μL). The samples were then acidified to a final concentration of 5% (v/v) formic acid and stored at −80° C. prior to analysis.
The resulting probe-modified peptides were collected for MS analysis, which was performed as described above with differences in the salt bumps applied in the chromatographic gradients which in this case were 0%, 30%, 60%, 90% and 100% NH4OAc (500 μM). The protein identification searches of the MS data were performed with the following changes applied to identify the peptides modified with the corresponding fragment probe and the cleaved TEV tag. All amino acids were considered as possible residues for modification. To facilitate the computational searches, sets of up to 3 amino acids were searched using ProLuCID and filtered with DTASelect as described above. […] The isoTOP ratios for probe labeled peptides were quantified using the in-house software CIMAGE.
For each protein in the site-of-labeling dataset, the UniProtKB accession number was used to map and collect relevant structures from the RCSB Protein Data Bank (PDB) fulfilling the following criteria: structures determined by X-ray crystallography, wild-type protein, Homo sapiens as the sole source organism. […] Fpocket 2.0 was used to detect potential binding pockets for the resultant structures with all parameters set at recommended default. Pockets with volume less than 500 Å^3 were removed from output prior to further analysis. Residues surrounding fpocket predicted binding pockets for each protein were collected to determine the number of residues overlapping with isoTOP peptides.

## C#CCCC1(CCC(=O)Nc2ccc(C3CCNCC3)cc2)N=N1 [probe 9, 3-(3-(But-3-yn-1-yl)-3H-diazirin-3-yl)-N-(4-(piperidin-4-yl)phenyl)propanamide]
Accession P06865, residues of probe-labeled peptide, family Enzymes
  Labeled Peptide of HEXA Beta-hexosaminidase subuit alpha: 489-499
Accession P10253, residues of probe-labeled peptide, family Enzymes
  Labeled Peptide of GAA Lysosomal alpha-glucosidase: 855-870
Accession P16278, residues of probe-labeled peptide, family Enzymes
  Labeled Peptide of GLB1 Beta-galactosidase: 286-299
HEXA Beta-hexosaminidase subunit alpha, residues of probe-modified peptide
  Labeled Peptide: 489-499
HSP90B1 Endoplasmin, residues of probe-modified peptide
  Labeled Peptide: 117-135
LGALS3BP Galectin-3-binding protein (Q08380), residues of the probe-labeled peptide
  Labeled Peptide: 522-541
MAN2B1 Lysosomal alpha-mannosidase (O00754), residues of the probe-labeled peptide
  Labeled Peptide: 614-638
MAN2B2 Epididymis specific alpha-mannosidase (Q9Y2E5), residues of the probe-labeled peptide
  Labeled Peptide: 642-664
NAGLU Alpha-N-acetylglucosaminidase (P54802), residues of the probe-labeled peptide
  Labeled Peptide: 566-580
P4HB Protein disulfide-isomerase (P07237), residues of the probe-labeled peptide
  Labeled Peptide: 171-195
P00338 LDHA L-lactate dehydrogenase A chain
  Labeled Peptide: 43-57
P06865 HEXA Beta-hexosaminidase subunit alpha
  Labeled Peptide: 489-499
P07339 CTSD Cathepsin D
  Labeled Peptide: 236-253
P14625 HSP90B1 Endoplasmin
  Labeled Peptide: 117-135
P16278 GLB1 Beta-galactosidase
  Labeled Peptide: 286-299
Q9H7B4, peptide DQYCLECDCFR, PDB 5HQ8
  Labeled Peptide (residues) of SMYD3 SET and MYND domain-containing protein 3: 255-265
Protein ATP1A1 (P05023), residues of probe-labeled peptide
  Labeled Peptide: 894-911
Protein C19orf6 Membralin (Q4ZIN3), residues of probe-labeled peptide
  Labeled Peptide: 254-271
Protein CCT6A T-complex protein 1 subunit zeta (P40227), residues of probe-labeled peptide
  Labeled Peptide: 400-424
Protein CLN5 Ceroid-lipofuscinosis neuronal protein 5 (O75503), residues of probe-labeled peptide
  Labeled Peptide: 74-96
Protein CPVL Probable serine carboxypeptidase CPVL (Q9H3G5), residues of probe-labeled peptide
  Labeled Peptide: 195-208
Protein CTSD Cathepsin D, residues of probe-labeled peptide
  Labeled Peptide: 236-253
Protein CTSD Cathespin D (P07339), residues of probe-labeled peptide
  Labeled Peptide: 236-253
Protein DNASE2 Deoxyribonuclease-2-alpha (O00115), residues of probe-labeled peptide
  Labeled Peptide: 173-202
Protein ECHDC1 Ethylmalonyl-CoA decarboxylase (Q9NTX5), residues of probe-labeled peptide
  Labeled Peptide: 272-283
Protein EIF4H Eukaryotic translation initiation factor 4H (Q15056), residues of probe-labeled peptide
  Labeled Peptide: 97-109
Protein FARSB Phenylalanine--tRNA ligase beta subunit, residues of probe-labeled peptide
  Labeled Peptide: 72-82
Protein FARSB Phenylalanini--tRNA ligase beta subunit (Q9NSD9), residues of probe-labeled peptide
  Labeled Peptide: 72-82
Protein GLB1 Beta-galactosidase, residues of probe-labeled peptide
  Labeled Peptide: 286-299
Protein LDHA L-lactate dehydrogenase A chain, residues of the probe-labeled peptide
  Labeled Peptide: 43-57
Protein NAGLU Alpha-N-acetylglucosaminidase, residues of the probe-labeled peptide
  Labeled Peptide: 566-580
Protein P4HB Protein disulfide-isomerase, residues of the probe-labeled peptide
  Labeled Peptide: 171-195
Protein P46977 STT3A Dolichyl-diphosphooligosaccharide--protein glycosy
  Labeled Peptide: 572-595
Protein PCYOX1 Prenylcysteine oxidase 1 (Q9UHG3)
  Labeled Peptide: 292-304
Protein PDIA4 Protein disulfide-isomerase A4 (P13667)
  Labeled Peptide: 486-499
Protein PHB Prohibitin (P35232)
  Labeled Peptide: 220-239
Protein Q8IXU6 SLC35F2 Solute carrier family 35 member F2
  Labeled Peptide: 188-221
Protein Q8TCJ2 STT3B Dolichyl-diphosphooligosaccharide--protein glycosy
  Labeled Peptide: 651-674
Protein Q9BVK6 TMED9 Transmembrane emp24 domain-containg protein 9
  Labeled Peptide: 49-65
Protein Q9H7B4 SMYD3 SET and MYND domain-containing protein 3
  Labeled Peptide: 255-265
Protein Q92973 TNPO1 Transportin-1
  Labeled Peptide: 273-298
Protein RALA Ras-related protein Ral-A (P11233)
  Labeled Peptide: 28-47
Protein SMYD3 SET and MYND domain-containing protein 3, residues of the probe-modified peptide
  Labeled Peptide: 255-265
Protein TNPO1 Transportin-1, residues of the probe-modified peptide
  Labeled Peptide: 273-298
